In assay [1] the target is T1, Recombinant human integrin αVβ3 (Homo sapiens, UniProt P05106+P06756).
T1 construct: purchased R&D Systems, Minneapolis, MN, USA
In words: Inhibition of biotinylated vitronectin binding to purified αVβ3 receptor (solid phase receptor binding assay). Particulars: conjugates, Table 2; mean ± SD of triplicate determinations. As for the experimental part: Conjugates 7–11 were evaluated for their ability to inhibit biotinylated vitronectin binding to the purified αVβ3 receptor. Screening assays were performed by incubating the immobilized integrin receptor with solutions of the cyclo[DKP-RGD]-α-amanitin and cyclo[DKP-isoDGR]-α-amanitin conjugates 7–11 at different concentrations (10^−12 to 10^−5 M) in the presence of biotinylated vitronectin (1 µg mL^−1) and measuring bound vitronectin. […]
to assist the dissolution). The solution obtained was filtered (polypropylene, 0.45 μm, 13 mm ø, PK/100) and injected in the HPLC, affording purified products. Purity analyses were carried on a Dionex Ultimate 3000 instrument equipped with a Dionex RS Variable Wavelenght detector (column: Atlantis® Prep T3 OBDTM 5 μm 19 × 100 mm). The analyte (1 mg) was dissolved in 1 mL of H2O and was injected using the same gradient used in the purification step. The analysis of the integrals and the relative percentage of purity were performed with the software Chromeleon 6.80 SR11 Build 3161. Also, preparative HPLC LaPrep∑ equipped with autosampler AS3950 and a Phenomenex Luna C-18(2) column, 10 µm, 250 × 21.2 mm, with precolumn at 30 mL/min flow rate and analytical HPLC performed on Hitachi Chromaster (column oven Chromaster 5310, pump Chromaster 5110, autosampler Chromaster 5210, DAD Chromaster 5430) equipped with a Phenomenex Luna C-18(2) column, 10 µm, 250 × 4.6 mm, with precolumn at 1.4 mL/min flow rate were used. Freeze-drying: The product was dissolved in water and frozen with dry ice. The freeze-drying was carried out at least for 48 h at −50 °C using the instrument 5Pascal Lio5P DGT.
Solid phase receptor binding assays
Recombinant human integrin αVβ3 (R&D Systems, Minneapolis, MN, USA) was diluted to 0.5 µg/mL in coating buffer containing 20 mM Tris-HCl (pH 7.4), 150 mM NaCl, 1 mM MnCl2, 2 mM CaCl2, and 1 mM MgCl2. […] Absorbance at 415 nm was read in a SynergyTM HT Multi-Detection Microplate Reader (BioTek Instruments, Inc.). […]

Assay [2] relates to MDA-MB-468 cells (breast adenocarcinoma, αVβ3−). Kind of assay: cells. It is filed as cell-based. Particulars: 96 hours treatment; triplicate; read-out: IC50 MDA-MB-468 (αVβ3−), inhibition of cell viability. As for the experimental part:
The cell lines were treated with different concentrations of the free drug α-amanitin and conjugates 7–11 for 96 hours. […]
described recently.[S1] The SNP profiles matched known profiles or were unique. The purity of the cell lines was validated using the Multiplex cell Contamination Test by Multiplexion (Heidelberg, Germany) as described recently.[S2] No mycoplasma, SMRV or interspecies contamination was detected. U87-MG, MDA-MB 468 and A549 cells were cultivated continuously for not more than 3 months in MEM Eagle´s, DMEM or Ham´s F12 medium, respectively, supplemented with 10% heat inactivated fetus calf serum, L-glutamine and antibiotics. Cell lines were maintained at 37 °C and 5% CO2 in a high humidity atmosphere.
Cell therapy and viability assay
Cell viability assays were performed in U87-MG, A549 and MDA-MB 468 cell lines according to the following procedure: 2 × 10^3 cells/well were plated in 96-well black clear bottom plates (Perkin Elmer) and incubated overnight. 1:5 serial dilutions of compounds 7–11 were prepared in cell culture media. The compounds were added to the cell culture and incubated for additional 96 h. Starting concentration of compounds 7–11 in the wells was 1 × 10−5 M and cell viability was determined with the CellTiterGlo 2.0 assay (Promega) in accordance to manufacturer’s instructions. The cell viability was calculated in relation to the non-treated controls for each cell line. All samples were measured in triplicate. Data analysis was carried out using software GraphPad Prism (GraphPad Software Inc., La Jolla, CA, USA). […]
[S1] F. Castro, W. G. Dirks, S. Fähnrich, A. Hotz-Wagenblatt, M. Pawlita, M. Schmitt, Int. J. Cancer […]
[S2] M. Schmitt, M. Pawlita, Nucleic Acids Res. 2009, 37, e119.

T1 sequence (P06756 31-992 limits assumed): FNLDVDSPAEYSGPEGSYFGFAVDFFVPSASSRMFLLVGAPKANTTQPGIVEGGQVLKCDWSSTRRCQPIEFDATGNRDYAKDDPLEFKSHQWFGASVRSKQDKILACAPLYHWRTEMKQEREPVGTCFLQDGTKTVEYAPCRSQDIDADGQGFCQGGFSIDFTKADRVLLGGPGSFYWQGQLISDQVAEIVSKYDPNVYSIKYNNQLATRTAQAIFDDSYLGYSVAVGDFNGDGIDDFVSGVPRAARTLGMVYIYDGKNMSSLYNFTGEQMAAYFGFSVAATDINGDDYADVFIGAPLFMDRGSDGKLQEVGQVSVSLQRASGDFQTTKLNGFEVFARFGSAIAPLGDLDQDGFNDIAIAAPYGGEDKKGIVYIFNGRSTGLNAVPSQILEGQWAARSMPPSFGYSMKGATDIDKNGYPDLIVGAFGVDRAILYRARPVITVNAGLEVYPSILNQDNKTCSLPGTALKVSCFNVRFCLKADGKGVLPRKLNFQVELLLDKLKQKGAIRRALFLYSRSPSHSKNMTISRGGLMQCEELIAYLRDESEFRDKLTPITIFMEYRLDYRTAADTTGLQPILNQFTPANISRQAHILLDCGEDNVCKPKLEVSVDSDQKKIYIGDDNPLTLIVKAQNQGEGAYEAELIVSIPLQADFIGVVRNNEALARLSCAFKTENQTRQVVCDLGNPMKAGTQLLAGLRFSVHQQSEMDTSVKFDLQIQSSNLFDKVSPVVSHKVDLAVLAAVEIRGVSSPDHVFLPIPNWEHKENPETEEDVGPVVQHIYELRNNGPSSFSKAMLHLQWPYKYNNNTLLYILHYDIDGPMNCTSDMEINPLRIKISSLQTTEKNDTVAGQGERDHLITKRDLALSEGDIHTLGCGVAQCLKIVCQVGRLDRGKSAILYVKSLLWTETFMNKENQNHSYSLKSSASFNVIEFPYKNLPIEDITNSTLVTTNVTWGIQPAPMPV
T1 sequence (P05106 27-718 limits assumed): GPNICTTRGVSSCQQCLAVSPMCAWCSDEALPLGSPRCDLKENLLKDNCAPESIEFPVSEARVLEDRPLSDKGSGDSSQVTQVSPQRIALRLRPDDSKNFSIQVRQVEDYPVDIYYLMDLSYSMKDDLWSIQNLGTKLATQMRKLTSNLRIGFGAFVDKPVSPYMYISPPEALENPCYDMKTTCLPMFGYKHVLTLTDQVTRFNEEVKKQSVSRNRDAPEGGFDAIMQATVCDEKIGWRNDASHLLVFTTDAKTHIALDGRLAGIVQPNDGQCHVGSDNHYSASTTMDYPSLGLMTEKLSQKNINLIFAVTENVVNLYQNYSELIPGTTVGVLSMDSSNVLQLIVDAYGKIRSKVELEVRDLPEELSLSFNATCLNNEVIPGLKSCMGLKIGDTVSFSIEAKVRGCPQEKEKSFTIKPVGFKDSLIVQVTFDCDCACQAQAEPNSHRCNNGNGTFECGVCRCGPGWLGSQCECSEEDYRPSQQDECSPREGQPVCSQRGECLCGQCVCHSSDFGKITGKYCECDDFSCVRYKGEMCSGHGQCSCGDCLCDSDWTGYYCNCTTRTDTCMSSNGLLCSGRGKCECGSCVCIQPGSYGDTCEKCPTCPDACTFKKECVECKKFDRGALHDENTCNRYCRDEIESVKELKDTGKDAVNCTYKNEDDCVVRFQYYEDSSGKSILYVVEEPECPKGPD

One may read the IC50 as the concentration that gives 50% inhibition. In the case of `CC[C@H](C)[C@@H]1NC(=O)CNC(=O)[C@@H]2Cc3c([nH]c4cc(OCc5ccc(NC(=O)[C@H](C)NC(=O)[C@@H](NC(=O)CCCC(=O)NCc6ccc(CN7C(=O)[C@H]8CC(=O)N[C@H](C(=O)O)CC(=O)NCC(=O)N[C@@H](CCCNC(=N)N)C(=O)NC[C@H]7C(=O)N8)cc6)C(C)C)cc5)ccc34)[S@+]([O-])C[C@H](NC(=O)CNC1=O)C(=O)N[C@@H](CC(N)=O)C(=O)N1C[C@H](O)C[C@H]1C(=O)N[C@@H]([C@@H](C)[C@@H](O)CO)C(=O)N2` [Compound 10, cyclo[DKP-isoDGR]-Val-Ala-α-amanitin], the IC50 stood at 6.4 ± 1.9 nM in assay [1] and 59 ± 23.4 nM in assay [2].

For the origin of these results see publication PMC5827777, “Synthesis and biological evaluation of RGD and isoDGR peptidomimetic-α-amanitin conjugates for tumor-targeting” (Beilstein Journal of Organic Chemistry, 2018).
